Reference: patent US8530489B2 (Vertex Pharmaceuticals Incorporated, priority 2006, dated 2013)

These compounds were tested against PLK1 (Homo sapiens, UniProt P53350) (assay: PLK1 Inhibition Assay I (radioactive-phosphate incorporation)). Settings: Ki(app); PLK1 Inhibition Assay I or II (table does not say which).
Assay type: biochemical
Outline: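 Ki(app) values came from non-linear regression of initial rates after background subtraction, with phosphopeptide measured by phosphocellulose filter binding and scintillation counting. PLK1 at 2 nM was preincubated with compound (typically from 10 μM, 2-fold dilutions) for 10 min, then run 240 min at 25° C with 350 μM [γ-33P]ATP and 450 μM peptide substrate in HEPES pH 7.5 buffer.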

Chain of PLK1 (P53350 whole entry): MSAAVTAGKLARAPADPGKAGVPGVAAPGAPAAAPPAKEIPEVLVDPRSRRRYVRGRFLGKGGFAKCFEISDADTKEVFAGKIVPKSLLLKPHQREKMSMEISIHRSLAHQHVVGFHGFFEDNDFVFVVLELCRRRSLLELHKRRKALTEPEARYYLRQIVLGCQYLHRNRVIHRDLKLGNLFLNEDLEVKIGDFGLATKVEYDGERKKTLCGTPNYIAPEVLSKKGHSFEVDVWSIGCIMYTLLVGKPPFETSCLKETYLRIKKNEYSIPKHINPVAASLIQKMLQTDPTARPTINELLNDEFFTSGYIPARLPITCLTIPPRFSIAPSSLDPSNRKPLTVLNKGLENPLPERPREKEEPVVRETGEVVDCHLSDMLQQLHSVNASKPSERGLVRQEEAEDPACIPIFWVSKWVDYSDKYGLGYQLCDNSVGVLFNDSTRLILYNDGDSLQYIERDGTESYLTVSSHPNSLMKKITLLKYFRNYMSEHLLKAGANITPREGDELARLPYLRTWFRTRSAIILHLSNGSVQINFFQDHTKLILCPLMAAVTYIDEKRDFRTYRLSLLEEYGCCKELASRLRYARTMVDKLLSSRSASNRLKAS

SMILES | Ki [µM]
N#Cc1cnc(NCC2(O)CCCCC2)nc1-c1c[nH]c2ncc(C(F)(F)F)cc12 [Compound I-49, 2-((1-hydroxycyclohexyl)methylamino)-4-(5-(trifluoromethyl)-1H-pyrrolo[2,3-b]pyridin-3-yl)pyrimidine-5-carbonitrile] | 0.003 to 0.04
C[C@@H](Nc1ncc(C#N)c(-c2c[nH]c3ncc(C(F)(F)F)cc23)n1)c1ccc(NCCN2CCCC2)nc1 [Compound I-223, 2-((R)-1-(6-(2-(pyrrolidin-1-yl)ethylamino)pyridin-3-yl)ethylamino)-4-(5-(trifluoromethyl)-1H-pyrrolo[2,3-b]pyridin-3-yl)pyrimidine-5-carbonitrile] | 0.003 to 0.04
N#Cc1cnc(NCc2nc3ccccc3[nH]2)nc1-c1c[nH]c2ncc(C(F)(F)F)cc12 [Compound I-30, 2-((1H-benzo[d]imidazol-2-yl)methylamino)-4-(5-(trifluoromethyl)-1H-pyrrolo[2,3-b]pyridin-3-yl)pyrimidine-5-carbonitrile] | > 0.04
C[C@@H](Nc1ncc(C#N)c(-c2c[nH]c3ncc(C(F)(F)F)cc23)n1)C1CCN(C(=O)C(C)(C)O)CC1 [Compound I-206, 2-((R)-1-(1-(2-hydroxy-2-methylpropanoyl)piperidin-4-yl)ethylamino)-4-(5-(trifluoromethyl)-1H-pyrrolo[2,3-b]pyridin-3-yl)pyrimidine-5-carbonitrile] | < 0.003
CC(=O)C(=O)N1CCC([C@@H](C)Nc2ncc(C#N)c(-c3c[nH]c4ncc(C(F)(F)F)cc34)n2)CC1 [Compound I-231, 2-((R)-1-(1-(2-oxopropanoyl)piperidin-4-yl)ethylamino)-4-(5-(trifluoromethyl)-1H-pyrrolo[2,3-b]pyridin-3-yl)pyrimidine-5-carbonitrile] | < 0.003
N#Cc1cnc(NCc2ccc(-c3cccs3)cc2)nc1-c1c[nH]c2ncc(C(F)(F)F)cc12 [Compound I-54, 2-(4-(thiophen-2-yl)benzylamino)-4-(5-(trifluoromethyl)-1H-pyrrolo[2,3-b]pyridin-3-yl)pyrimidine-5-carbonitrile] | > 0.04
CC(Nc1ncc(C#N)c(-c2c[nH]c3ncc(C(F)(F)F)cc23)n1)C1CN(C(=O)CN)C1 (stereo not drawn) [Compound I-235, 2-(1-(1-(2-aminoacetyl)azetidin-3-yl)ethylamino)-4-(5-(trifluoromethyl)-1H-pyrrolo[2,3-b]pyridin-3-yl)pyrimidine-5-carbonitrile] | > 0.04
CC(C)[C@@H](O)C(=O)N1CCC([C@@H](C)Nc2ncc(C#N)c(-c3c[nH]c4ncc(C(F)(F)F)cc34)n2)CC1 [Compound I-256, 2-((R)-1-(1-((R)-2-hydroxy-3-methylbutanoyl)piperidin-4-yl)ethylamino)-4-(5-(trifluoromethyl)-1H-pyrrolo[2,3-b]pyridin-3-yl)pyrimidine-5-carbonitrile] | < 0.003
CC(C)(Nc1ncc(C#N)c(-c2c[nH]c3ncc(Cl)cc23)n1)C(=O)NC1CCCCC1 [IA-5, 2-(4-(5-chloro-1H-pyrrolo[2,3-b]pyridin-3-yl)-5-cyanopyrimidin-2-ylamino)-N-cyclohexyl-2-methylpropanamide] | 0.003 to 0.04
N#Cc1cnc(NC2CC2c2ccccc2)nc1-c1c[nH]c2ncc(C(F)(F)F)cc12 (stereo not drawn) [Compound I-27, 2-(2-phenylcyclopropylamino)-4-(5-(trifluoromethyl)-1H-pyrrolo[2,3-b]pyridin-3-yl)pyrimidine-5-carbonitrile] | > 0.04
N#Cc1cnc(Sc2ccccc2Br)nc1-c1c[nH]c2ncc(C(F)(F)F)cc12 [II-7, 2-(2-bromophenylthio)-4-(5-(trifluoromethyl)-1H-pyrrolo[2,3-b]pyridin-3-yl)pyrimidine-5-carbonitrile] | > 0.04
C[C@@H](Nc1ncc(C#N)c(-c2c[nH]c3ncc(C(F)(F)F)cc23)n1)c1ccc(N2CCN3CCC[C@@H]3C2)nc1 [Compound I-298, 2-((R)-1-(6-((R)-hexahydropyrrolo[1,2-a]pyrazin-2(1H)-yl)pyridin-3-yl)ethylamino)-4-(5-(trifluoromethyl)-1H-pyrrolo[2,3-b]pyridin-3-yl)pyrimidine-5-carbonitrile] | < 0.003
N#Cc1cnc(Sc2ccc(Cl)cc2)nc1-c1c[nH]c2ncc(C(F)(F)F)cc12 [II-2, 2-(4-chlorophenylthio)-4-(5-(trifluoromethyl)-1H-pyrrolo[2,3-b]pyridin-3-yl)pyrimidine-5-carbonitrile] | > 0.04
C[C@@H](Nc1ncc(C#N)c(-c2c[nH]c3ncc(C(F)(F)F)cc23)n1)[C@H]1CC[C@H](NC(=O)CN)CC1 [Compound I-264, 2-amino-N-((1R,4r)-4-((1R)-1-(5-cyano-4-(5-(trifluoromethyl)-1H-pyrrolo[2,3-b]pyridin-3-yl)pyrimidin-2-ylamino)ethyl)cyclohexyl)acetamide] | < 0.003
CC(C)(Nc1ncc(C#N)c(-c2c[nH]c3ncccc23)n1)C(=O)NCC(F)(F)F [IA-10, 2-(5-cyano-4-(1H-pyrrolo[2,3-b]pyridin-3-yl)pyrimidin-2-ylamino)-2-methyl-N-(2,2,2-trifluoroethyl)propanamide] | > 0.04
N#Cc1cnc(Sc2ccc(Br)cc2)nc1-c1c[nH]c2ncc(C(F)(F)F)cc12 [II-8, 2-(4-bromophenylthio)-4-(5-(trifluoromethyl)-1H-pyrrolo[2,3-b]pyridin-3-yl)pyrimidine-5-carbonitrile] | > 0.04
N#Cc1cnc(Sc2cccc(Br)c2)nc1-c1c[nH]c2ncc(C(F)(F)F)cc12 [II-4, 2-(3-bromophenylthio)-4-(5-(trifluoromethyl)-1H-pyrrolo[2,3-b]pyridin-3-yl)pyrimidine-5-carbonitrile] | > 0.04
C[C@@H](Nc1ncc(C#N)c(-c2c[nH]c3ncc(C(F)(F)F)cc23)n1)C1CCN(C(=O)C2CNC2)CC1 [Compound I-227, 2-((R)-1-(1-(azetidine-3-carbonyl)piperidin-4-yl)ethylamino)-4-(5-(trifluoromethyl)-1H-pyrrolo[2,3-b]pyridin-3-yl)pyrimidine-5-carbonitrile] | < 0.003
C[C@@H](Nc1ncc(C#N)c(-c2c[nH]c3ncc(C(F)(F)F)cc23)n1)C1CCN(C(=O)[C@H](N)CO)CC1 [Compound I-240, 2-((R)-1-(1-((R)-2-amino-3-hydroxypropanoyl)piperidin-4-yl)ethylamino)-4-(5-(trifluoromethyl)-1H-pyrrolo[2,3-b]pyridin-3-yl)pyrimidine-5-carbonitrile] | < 0.003
N#Cc1cnc(N[C@@H]2CC[C@H](CO)C2)nc1-c1c[nH]c2ncc(C(F)(F)F)cc12 [Compound I-119, 2-((1R,3S)-3-(hydroxymethyl)cyclopentylamino)-4-(5-(trifluoromethyl)-1H-pyrrolo[2,3-b]pyridin-3-yl)pyrimidine-5-carbonitrile] | 0.003 to 0.04
CC(=O)N1CCC([C@@H](C)Nc2ncc(C#N)c(-c3c[nH]c4ncc(C(F)(F)F)cc34)n2)CC1 [Compound I-134, 2-((R)-1-(1-acetylpiperidin-4-yl)ethylamino)-4-(5-(trifluoromethyl)-1H-pyrrolo[2,3-b]pyridin-3-yl)pyrimidine-5-carbonitrile] | < 0.003

The next lines start with the values.

Ki [µM] | SMILES
< 0.003 | CC(Nc1ncc(C#N)c(-c2c[nH]c3ncc(C(F)(F)F)cc23)n1)c1cccnc1 (stereo not drawn) [Compound I-51, 2-(1-(pyridin-3-yl)ethylamino)-4-(5-(trifluoromethyl)-1H-pyrrolo[2,3-b]pyridin-3-yl)pyrimidine-5-carbonitrile]
> 0.04 | C[C@H](Nc1ncc(C#N)c(-c2c[nH]c3ncc(C(F)(F)F)cc23)n1)c1ccccc1 [Compound I-5, 2-((S)-1-phenylethylamino)-4-(5-(trifluoromethyl)-1H-pyrrolo[2,3-b]pyridin-3-yl)pyrimidine-5-carbonitrile]
0.003 to 0.04 | CC(C)NC(=O)c1ccc([C@@H](C)Nc2ncc(C#N)c(-c3c[nH]c4ncc(C(F)(F)F)cc34)n2)cc1 [Compound I-172, 4-((1R)-1-(5-cyano-4-(5-(trifluoromethyl)-1H-pyrrolo[2,3-b]pyridin-3-yl)pyrimidin-2-ylamino)ethyl)-N-isopropylbenzamide]
< 0.003 | C[C@@H](Nc1ncc(C#N)c(-c2c[nH]c3ncc(C(F)(F)F)cc23)n1)c1ccc(N(C)CCN(C)C)nc1 [Compound I-282, 2-((R)-1-(6-((2-(dimethylamino)ethyl)(methyl)amino)pyridin-3-yl)ethylamino)-4-(5-(trifluoromethyl)-1H-pyrrolo[2,3-b]pyridin-3-yl)pyrimidine-5-carbonitrile]
0.003 to 0.04 | CC(Nc1ncc(C#N)c(-c2c[nH]c3ncc(C(F)(F)F)cc23)n1)c1ccc(N2CCN(C(=O)OC(C)(C)C)CC2)cc1 (stereo not drawn) [Compound I-123, tert-butyl 4-(4-(1-(5-cyano-4-(5-(trifluoromethyl)-1H-pyrrolo[2,3-b]pyridin-3-yl)pyrimidin-2-ylamino)ethyl)phenyl)piperazine-1-carboxylate]
< 0.003 | C[C@@H](Nc1ncc(C#N)c(-c2c[nH]c3ncc(C(F)(F)F)cc23)n1)c1ccc(NS(C)(=O)=O)cc1 [Compound I-136, N-(4-((1R)-1-(5-cyano-4-(5-(trifluoromethyl)-1H-pyrrolo[2,3-b]pyridin-3-yl)pyrimidin-2-ylamino)ethyl)phenyl)methanesulfonamide]
< 0.003 | COc1ccc([C@@H](C)Nc2ncc(C#N)c(-c3c[nH]c4ncc(C(F)(F)F)cc34)n2)cc1 [Compound I-26, 2-((R)-1-(4-methoxyphenyl)ethylamino)-4-(5-(trifluoromethyl)-1H-pyrrolo[2,3-b]pyridin-3-yl)pyrimidine-5-carbonitrile]
> 0.04 | N#Cc1cnc(NC(CO)c2cccnc2)nc1-c1c[nH]c2ncc(C(F)(F)F)cc12 (stereo not drawn) [Compound I-113, 2-(2-hydroxy-1-(pyridin-3-yl)ethylamino)-4-(5-(trifluoromethyl)-1H-pyrrolo[2,3-b]pyridin-3-yl)pyrimidine-5-carbonitrile]
> 0.04 | COc1ccccc1CNc1ncc(C#N)c(-c2c[nH]c3ncc(C(F)(F)F)cc23)n1 [Compound I-15, 2-(2-methoxybenzylamino)-4-(5-(trifluoromethyl)-1H-pyrrolo[2,3-b]pyridin-3-yl)pyrimidine-5-carbonitrile]
